The subject of experiment [1] is WT PKGIα. Nature of the experiment: Oxidation of recombinant WT PKGIα to disulfide dimer (SDS-PAGE). The format is biochemical, human. Conditions: 10 mM lipoic acid, 2 h on ice; confirmed by SDS-PAGE. The protocol: A pCDNA3 expression vector encoding human FLAG-tagged PKGIα (ref. [41]) underwent site-directed mutagenesis to generate constructs for untagged WT, C42S, M438G and C42S/M438G PKGIα. Mutations were introduced using the QuikChange II Site-Directed Mutagenesis Kit (Agilent) according to the manufacturer's instructions. Expression and purification of the PKGIα mutants was performed according to a published method[42] as follows: suspension FreeStyle 293-F cells (ThermoFisher Scientific) were transfected with the appropriate PKGIα construct using the stable cationic polymer polyethyleneimine (PEI) as a transfection reagent. After ∼72 h cells were harvested by centrifugation (400g; room temperature; 15 min), re-suspended in ice cold lysis buffer (25 mM sodium phosphate buffer pH 6.8; 10 mM ethylenediaminetetraacetic acid (EDTA); 100 mM NaCl; 10 mM benzamidine hydrochloride; and 10 mM dithiothreitol (DTT)) and frozen in liquid N2. Cells were lysed by three freeze (liquid N2)-thaw (37 °C) cycles and the lysate was clarified by centrifugation at 140,000g and 4 °C for 30 min. […] Protein concentration was determined by Pierce BCA assay (ThermoFisher) and enzyme activity was confirmed using the Omnia kinase assay kit (ThermoFisher).

The conditions of experiment [2]: 37 °C; value taken for Ca2+ calibration, no reference given; read-out: Kd of Fluo-3; cited from earlier work. Here is the method: To measure cytosolic Ca^2+ levels, cells were loaded with the acetoxymethyl (AM) ester form Fluo-3 (Molecular Probes) and excited continuously at 488 nm. Emitted fluorescence was measured with a 515 nm long-pass filter. Raw fluorescent signals were calibrated off-line as per equation (1). […] Background fluorescence was subtracted from all raw signals. Custom-written Excel routines were used to measure Ca^2+ transient amplitude, diastolic Ca^2+ levels, rate of decay of the Ca^2+ transient and SR Ca^2+ content. SR Ca^2+ content was estimated fr ...

Experiment [3] has as its system another kinase. Conditions: ref www.nature.com/ncomms/2015/150810/ncomms8920; cited from earlier work. From the text: page 15: reasons explained, are complicated to interpret and they are not anticipated to be as effective as many would envisage. […] Now high profile preclinical studies show ...
Experiment [4] relates to PKGIα disulfide dimer. Conditions: HEK cells, murine aortic rings or mesenteric blood vessels; ref Burgoyne et al. Hypertension 60, 1301-1308 (2012); Rudyk et al. Circulation 126, 287-295 (2012); cited from earlier work.
The subject of experiment [5] is PKGIα Cys42 disulfide bond. Conditions: ref [3], [4]; cited from earlier work.
Experiment [6] has as its system PKGIα (analogue-sensitive C42S/M438G), cGMP-activated. The experiment can be described thus: Chemical genetic phosphoproteomic screen, cGMP-activated PKGIα C42S/M438G versus unactivated control. Format: biochemical, human PKGIα; substrates in rat heart homogenate. The settings on record: cGMP activation; of 29 substrates with significant change. An excerpt:
We employed a chemical genetic method[18] to identify direct substrates of cGMP-activated PKGIα and disulfide bond-activated PKGIα in heart tissue. This method involves mutation of the ATP binding-site of the kinase of interest so that it can accept a ‘bulky' N6-alkylated ATP analogue for example, N6^−phenylethyl ATP. An oxygen atom on the γ phosphate is also replaced with a sulfur atom—giving an N6-alkylated ATPγS analogue—so that the mutant kinase catalyses the transfer of a thiophosphate group (–PO3S^3−) to its substrates instead of a phosphate. The thiophosphate group is nucleophilic, providing a basis for substrates of the analogue-sensitive kinase to be purified by a ‘covalent capture' protocol. LC–MS/MS allows identification of the substrate and localization of the phosphorylation site. Thiophosphorylated proteins can also be detected with a thiophosphate ester-specific antibody. Analogue-sensitive mutants of PKGIα and PKGIα C42S (which cannot form the activating intermolecular disulfide bond) were generated by mutating Met438 in the ATP-binding domain to Gly. This mutation was chosen based on a previous study where an analogue-sensitive mutant of the catalytic subunit of PKA—which shares sequence homology with PKGIα—was engineered. Detailed protocols are given below.
A pCDNA3 expression vector encoding human FLAG-tagged PKGIα (ref. [41]) underwent site-directed mutagenesis to generate constructs for untagged WT, C42S, M438G and C42S/M438G PKGIα. Mutations were introduced using the QuikChange II Site-Directed Mutagenesis Kit (Agilent) according to the manufacturer's instructions. Expression and purification of the PKGIα mutants was performed according to a published method[42] as follows: suspension FreeStyle 293-F cells (ThermoFisher Scientific) were transfected with the appropriate PKGIα construct using the stable cationic polymer polyethyleneimine (PEI) as a transfection reagent. After ∼72 h cells were harvested by centrifugation (400g; room temperature; 15 min), re-suspended in ice cold lysis buffer (25 mM sodium phosphate buffer pH 6.8; 10 mM ethylenediaminetetraacetic acid (EDTA); 100 mM NaCl; 10 mM benzamidine hydrochloride; and 10 mM dithiothreitol (DTT)) and frozen in liquid N2. Cells were lysed by three freeze (liquid N2)-thaw (37 °C) cycles and the lysate was clarified by centrifugation at 140,000g and 4 °C for 30 min. The soluble protein fraction was loaded onto a pre-equilibrated 8-(2-aminoethylamino)adenosine-3′, 5′-cyclic monophosphate column (8-AEA-cAMP agarose; BioLog, Germany) followed by washing with 20 column volumes of lysis buffer. The column was further washed with lysis buffer +3 M NaCl (5 column volumes) and PKGIα was then eluted with lysis buffer +150 mM NaCl and 500 μM cAMP. Removal of cAMP and buffer exchange was achieved by extensive dialysis against 25 mM sodium phosphate buffer pH 6.8, 2 mM EDTA and 100 mM NaCl. For ITC analysis, WT PKGIα was incubated with 10 mM lipoic acid for 2 h on ice to obtain ∼100% disulfide dimer (confirmed by SDS-PAGE). Oxidized WT or C42S PKGIα was further purified by size exclusion chromatography using a HiLoad 16/600 Superdex 200 pg column (GE Healthcare) with 50 mM sodium phosphate buffer pH 7.4 and 100 mM NaCl. Proteins were concentrated using Amicon Ultra centrifugal filter devices (Merck Millipore). DTT was absent in storage buffers so that the activating disulfide bond would not be reduced and so that the PKGIα M438G mutant would be oxidized to disulfide dimer in the presence of air (confirmed by SDS-PAGE). Protein concentration was determined by Pierce BCA assay (ThermoFisher) and enzyme activity was confirmed using the Omnia kinase assay kit (ThermoFisher).
Male Wistar rats (9–10 weeks; body weight 300–330 g) were euthanized by intraperitoneal injection of sodium pentobarbitone (200 mg kg^−1) with heparin (500 USP units). […]

The subject of experiment [7] is PKGIα (VASP phosphorylation) in mouse embryonic fibroblasts. The settings on record: ref Muller et al. Free Radic Biol Med 53, 1574-1583 (2012); cited from earlier work. From the text: This transgenic model was developed by the Sadoshima lab (Newark, USA) and the data are included in a PhD thesis (2015) by Daniel Stubbert from this lab. We have amended the manuscript so that it now states that the ...

Experiment [8] concerns PLN threonine 17. Conditions: cardiac myocytes exposed to hydrogen peroxide; no reference given; cited from earlier work.

The source of these data is PMC5095173, “Disulfide-activated protein kinase G Iα regulates cardiac diastolic relaxation and fine-tunes the Frank–Starling response” (Nature Communications, 2016).

Each structure is given as a SMILES string. pKd: −log10 of the molar value.

For the compound `O=C(O)CCCC[C@@H]1CCSS1` (racemic) [lipoic acid], the disulfide dimer formed in experiment [1] is around 100%. `Cc1ccc(N(CC(=O)O)CC(=O)O)c(OCCOc2cc(-c3c4cc(Cl)c(=O)cc-4oc4cc(O)c(Cl)cc34)ccc2N(CC(=O)O)CC(=O)O)c1` [Fluo-3]: the negative logarithm of the Kd (pKd) (as a rule, the negative decadic logarithm of the Kd, by convention in mol/L) in experiment [2] was 6.06.

As to `CC(=O)N[C@@H](CS)C(=O)O` [NAC, N-acetylcysteine], the “effect on oxidation of another kinase” value in experiment [3] is given as “promoted the oxidation of that target”.

In the case of `CC(=O)OC[C@H]1O[C@@H]([S-])[C@H](OC(C)=O)[C@@H](OC(C)=O)[C@@H]1OC(C)=O.CCP(CC)CC.[Au+]` [auranofin], the “PKGIα disulfide dimer upon treatment” value in experiment [4] was “accumulation of PKGIα disulfide dimer”.

For `Nc1nc2c(ncn2[C@@H]2O[C@@H]3COP(=O)(O)O[C@H]3[C@H]2O)c(=O)[nH]1` [cGMP, cyclic guanosine monophosphate, reference compound], the “effect on formation of the Cys42 intermolecular disulfide bond” value in experiment [5] is reported as “inhibits formation of the Cys42 intermolecular disulfide bond”. The “number of proteins with significantly increased phosphorylation when PKGIα was activated” value in experiment [6] stood at 28. As to `OO` [hydrogen peroxide], the “effect of pre-oxidation of PKGIα on its activation by cGMP” value in experiment [7] is recorded as “slightly attenuated”. In addition, the “PLN threonine 17 phosphorylation” value in experiment [8] is reported as “will become phosphorylated”.
